Patent US20240156832A1, “METHODS OF METABOLIZING METOPIMAZINE AND ITS SALTS” (Neurogastrx, Inc., priority 2020, published 2024)

How the values were obtained:
other CYP enzymes = assay: Incubation with the other recombinant CYP isoforms; format: in vitro ADME, human; settings: 1 μM MPZ, 60 min
From the text: All other procedures were the same as described previously.

[1] = Incubation with HKM for FMO; format: in vitro ADME, human; settings: HKM pH 8.4, NADPH, with/without methimazole, heat inactivation
Method: (§1) MPZ, at 1.0 and 10.0 μM, was incubated with HLM or HKM to determine the contribution of microsomal FMOs on the metabolism of MPZ. A reaction mixture containing KPi buffer (pH 8.4), HLM or HKM (0.5 mg/mL protein) and MPZ (1.0 and 10.0 μM) was pre-incubated for 3-5 minutes at 37° C. The reaction was initiated by the addition of NADPH into the reaction mixture. Reaction was conducted for 0 and 60 min. A positive control (benzydamine, 100 μM) was incubated in duplicate for 0 and 20 minutes. Parallel incubation was conducted by adding 1 mM methimazole, a non-specific FMO inhibitor, under identical conditions. Heat inactivated microsomes (50° C. for at least 5 minutes) was incubated under identical conditions negative control. All other procedures were the same as described previously.

microsomal FMOs in HLM = assay: Incubation with HLM for FMO (pH 8.4, methimazole, heat); format: in vitro ADME, human; settings: 1 and 10 μM MPZ, NADPH, with and without methimazole, heat-pretreated control
Method: MPZ, at 1.0 and 10.0 μM, was incubated with HLM or HKM to determine the contribution of microsomal FMOs on the metabolism of MPZ.
as §1, with “A” for “MPZ, at 1.0 and 10.0 μM, was incubated with HLM or HKM to determine the contribution of microsomal FMOs on the metabolism of MPZ. A”

[2] = target: T1, human liver cytosolic aldehyde oxidase (Homo sapiens, UniProt Q06278); assay: Incubations with HLC fractions for AO activity; format: in vitro ADME; settings: HLC 1 mg/mL, 10 μM MPZ
T1 construct: tissue Xenotech; host or cells: pooled human liver cytosol
T1 sequence (Q06278 1-1338): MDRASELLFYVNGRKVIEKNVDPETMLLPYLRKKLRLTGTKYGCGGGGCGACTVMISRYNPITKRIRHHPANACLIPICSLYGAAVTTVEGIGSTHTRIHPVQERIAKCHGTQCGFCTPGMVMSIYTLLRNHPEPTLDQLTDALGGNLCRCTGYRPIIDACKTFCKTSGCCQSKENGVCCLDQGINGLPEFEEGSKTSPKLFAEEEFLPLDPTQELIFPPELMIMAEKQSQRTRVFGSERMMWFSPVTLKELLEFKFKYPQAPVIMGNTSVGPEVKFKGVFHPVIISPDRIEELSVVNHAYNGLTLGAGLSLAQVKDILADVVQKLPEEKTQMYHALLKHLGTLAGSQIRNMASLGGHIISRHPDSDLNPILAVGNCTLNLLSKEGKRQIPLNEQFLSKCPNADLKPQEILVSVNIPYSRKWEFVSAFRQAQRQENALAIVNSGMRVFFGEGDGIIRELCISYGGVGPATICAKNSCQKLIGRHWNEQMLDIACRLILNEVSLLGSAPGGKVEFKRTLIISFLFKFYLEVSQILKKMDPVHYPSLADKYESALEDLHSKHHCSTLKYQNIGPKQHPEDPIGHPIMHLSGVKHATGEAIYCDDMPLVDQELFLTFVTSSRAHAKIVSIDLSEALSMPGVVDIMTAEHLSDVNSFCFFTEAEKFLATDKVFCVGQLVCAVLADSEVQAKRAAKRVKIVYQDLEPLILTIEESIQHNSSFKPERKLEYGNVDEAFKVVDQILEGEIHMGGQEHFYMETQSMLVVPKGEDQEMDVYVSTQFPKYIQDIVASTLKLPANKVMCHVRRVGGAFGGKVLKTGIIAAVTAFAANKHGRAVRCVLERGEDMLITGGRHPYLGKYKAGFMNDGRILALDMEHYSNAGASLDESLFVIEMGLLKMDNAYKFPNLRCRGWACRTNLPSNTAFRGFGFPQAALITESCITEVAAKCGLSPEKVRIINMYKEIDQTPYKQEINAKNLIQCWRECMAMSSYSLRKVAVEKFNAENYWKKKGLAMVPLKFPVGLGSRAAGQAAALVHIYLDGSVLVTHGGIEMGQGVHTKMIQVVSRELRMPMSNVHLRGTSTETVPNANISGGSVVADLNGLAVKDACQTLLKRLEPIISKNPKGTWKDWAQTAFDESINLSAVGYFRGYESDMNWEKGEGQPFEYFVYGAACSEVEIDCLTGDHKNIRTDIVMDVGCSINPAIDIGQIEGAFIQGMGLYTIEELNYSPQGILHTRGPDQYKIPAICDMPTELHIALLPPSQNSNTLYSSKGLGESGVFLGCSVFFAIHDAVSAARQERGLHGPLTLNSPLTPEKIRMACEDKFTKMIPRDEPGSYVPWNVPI
Method: The metabolism of MPZ was evaluated in the human liver cytosolic incubation. A metabolic incubation was performed with HLC (1 mg/mL protein) and 10 μM MPZ at 37° C. for on an orbital shaker for 60 min. […] Another set of incubation was also conducted 1 μM phthalazine, a known substrate for aldehyde oxidase as positive control, under identical conditions.

For CS(=O)(=O)c1ccc2c(c1)N(CCCN1CCC(C(N)=O)CC1)c1ccccc1S2 [MPZ, metopimazine], the “contribution of other CYP enzymes to MPZ metabolism” value (other CYP enzymes) was “None of the other CYP enzymes appeared to have significant contribution”, the “metabolite production in HKM” value [1] was “did not produce any metabolites” and the “metabolite production in HKM” value ([1]; listed as metopimazine) was “No metabolites were produced under any condition”.

In the case of CS(=O)(=O)c1ccc2c(c1)N(CCCN1CCC(C(=O)O)CC1)c1ccccc1S2 [MPZA, metopimazine acid], the “MPZA formation in HLM at pH 8.4” value (microsomal FMOs in HLM) is reported as “Considerable formation of MPZA was observed with all conditions”, the “Metopimazine Acid Formation, 100 μM Menadione” value ([2]; incubation time 0 min) is reported as 0.00 nM and the “Metopimazine Acid Formation, No Menadione” value ([2]; incubation time 0 min) is reported as 0.00 nM. The “Metopimazine Acid Formation, 100 μM Menadione” value ([2]; incubation time 60 min) was 718.90 ± 21.40 nM and the “Metopimazine Acid Formation, No Menadione” value ([2]; incubation time 60 min) was 1371.66 ± 70.93 nM.
